Results taken from ChEMBL document CHEMBL1201862, “PubChem BioAssay data set” (2004).
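1) Cells in 96-well plates. 2) Compound, 48 h, 5 concentrations. 3) Linear interpolation between surrounding doses. 4) Unreached endpoint = highest concentration. Here, GI50 denotes the concentration required for 50% inhibition of growth.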 Calls of active or inactive are those of the source. Rule as the data show it: active = GI50 up to about 1.1 µM and inactive = higher.

Legend:
Assay in all cases: DTP human tumour cell line panel, 48 h
SR = system: SR
BT-549 = system: BT-549
786-0 = system: 786-0
HOP-62 = system: HOP-62
Hs-578T = system: Hs-578T
NCI-H23 = system: NCI-H23
OVCAR-3 = system: OVCAR-3
OVCAR-4 = system: OVCAR-4
ACHN = system: ACHN
SK-MEL-5 = system: SK-MEL-5
SNB-19 = system: SNB-19
HCT-15 = system: HCT-15
K562 = system: K562
MDA-MB-231 = system: MDA-MB-231
LOX IMVI = system: LOX IMVI
SK-OV-3 = system: SK-OV-3
DU-145 = system: DU-145
RPMI-8226 = system: RPMI-8226
TK-10 = system: TK-10
UACC-257 = system: UACC-257

SMILES	GI50 (SR)	GI50 (BT-549)	GI50 (786-0)	GI50 (HOP-62)	GI50 (Hs-578T)	GI50 (NCI-H23)	GI50 (OVCAR-3)	GI50 (OVCAR-4)	GI50 (ACHN)	GI50 (SK-MEL-5)	GI50 (SNB-19)	GI50 (HCT-15)	GI50 (K562)	GI50 (MDA-MB-231)	GI50 (LOX IMVI)	GI50 (SK-OV-3)	GI50 (DU-145)	GI50 (RPMI-8226)	GI50 (TK-10)	GI50 (UACC-257)
CCN(CC)C(=O)N[C@@H](Cc1ccccc1)C(=O)NC	> 100 µM (inactive)	> 100 µM (inactive)	> 100 µM (inactive)	> 100 µM (inactive)	> 100 µM (inactive)	> 100 µM (inactive)	> 100 µM (inactive)	> 100 µM (inactive)	> 100 µM (inactive)	> 100 µM (inactive)	> 100 µM (inactive)	> 100 µM	> 100 µM (inactive)	> 100 µM (inactive)	> 100 µM (inactive)	> 100 µM (inactive)	> 100 µM (inactive)	> 100 µM (inactive)	–	–
COC(=O)c1c(OC(C)=O)ccc2c1c1c(OC(C)=O)c3ccccc3c(OC(C)=O)c1n2C	14.5 µM (inactive)	21.8 µM (inactive)	26.4 µM (inactive)	24.4 µM (inactive)	18.3 µM (inactive)	40.8 µM (inactive)	14.7 µM (inactive)	19.4 µM (inactive)	15.4 µM (inactive)	6.04 µM (inactive)	39.4 µM (inactive)	27.9 µM	19.2 µM (inactive)	31.5 µM (inactive)	–	16.1 µM (inactive)	19.9 µM (inactive)	16.2 µM (inactive)	26.8 µM (inactive)	–
C=C1C(=O)C([Si](C)(C)C)=C2C=C(C)C3(CC3)C12C (centres undefined)	0.0279 µM (active)	25.4 µM (inactive)	95.3 µM (inactive)	> 100 µM (inactive)	41.5 µM (inactive)	46.6 µM (inactive)	29.2 µM (inactive)	25.6 µM (inactive)	61.1 µM (inactive)	19.4 µM (inactive)	> 100 µM (inactive)	35.8 µM	19.1 µM (inactive)	23 µM (inactive)	22.6 µM (inactive)	–	> 100 µM (inactive)	3.88 µM (inactive)	67.1 µM (inactive)	17.9 µM (inactive)
N#CCCC(CCC#N)(CCC#N)NO	> 100 µM (inactive)	> 100 µM (inactive)	> 100 µM (inactive)	–	> 100 µM (inactive)	> 100 µM (inactive)	–	–	> 100 µM (inactive)	> 100 µM (inactive)	> 100 µM (inactive)	> 100 µM	> 100 µM (inactive)	> 100 µM (inactive)	–	> 100 µM (inactive)	> 100 µM (inactive)	> 100 µM (inactive)	> 100 µM (inactive)	> 100 µM (inactive)
CCOC(=O)/C(C(C)=O)=C(\OC(C)=O)c1ccncc1C(=O)O	> 100 µM (inactive)	> 100 µM (inactive)	> 100 µM (inactive)	–	> 100 µM (inactive)	> 100 µM (inactive)	> 100 µM (inactive)	> 100 µM (inactive)	> 100 µM (inactive)	–	> 100 µM (inactive)	> 100 µM	> 100 µM (inactive)	> 100 µM (inactive)	> 100 µM (inactive)	> 100 µM (inactive)	> 100 µM (inactive)	> 100 µM (inactive)	–	> 100 µM (inactive)
CCC(=O)NC(NNS(=O)(=O)c1ccc(C)cc1)(C(F)(F)F)C(F)(F)F	39.4 µM (inactive)	29.7 µM (inactive)	> 100 µM (inactive)	65.2 µM (inactive)	34.2 µM (inactive)	48.9 µM (inactive)	> 10 µM (inactive)	–	49.9 µM (inactive)	50 µM (inactive)	> 100 µM (inactive)	32.1 µM	30.6 µM (inactive)	30.8 µM (inactive)	> 100 µM (inactive)	64.3 µM (inactive)	> 100 µM (inactive)	54.3 µM (inactive)	54.1 µM (inactive)	52 µM (inactive)
N#CSC1CCCCNC1=O (centres undefined)	6 µM (inactive)	5.93 µM (inactive)	14.7 µM (inactive)	20.6 µM (inactive)	16.1 µM (inactive)	7.62 µM (inactive)	11.3 µM (inactive)	–	14.9 µM (inactive)	–	15.2 µM (inactive)	11.8 µM	18.2 µM (inactive)	14.9 µM (inactive)	13.5 µM (inactive)	9.98 µM (inactive)	11.1 µM (inactive)	5.96 µM (inactive)	16.1 µM (inactive)	17.1 µM (inactive)
COC(=O)C1=C(O)c2ccc(Cl)cc2S(=O)(=O)N1C	> 100 µM (inactive)	> 100 µM (inactive)	> 100 µM (inactive)	> 10 µM (inactive)	> 100 µM (inactive)	58.9 µM (inactive)	–	45.1 µM (inactive)	> 100 µM (inactive)	97.1 µM (inactive)	60.4 µM (inactive)	45.1 µM	32.1 µM (inactive)	> 100 µM (inactive)	> 100 µM (inactive)	> 100 µM (inactive)	> 100 µM (inactive)	80.7 µM (inactive)	> 100 µM (inactive)	93.3 µM (inactive)
